What was measured:
Assay type in all cases: cell-based
[1] = system: A549 human lung epithelial cells
[2] = system: Yersinia pestis, Yersinia enterocolitica and Yersinis pseudomonas
[3] = system: Yersinia pestis, Yersinia enterocolitica

For CCCC(=[Se])NC1CCOC1=O (stereo not shown) [(IV), N-(2-oxo-tetrahydro-furan-3-yl)-selenobutyramide], the “infection of cells by Pseudomonas aeruginosa” value [1] was “prevented the infection of cells”, the viability of cells [1] was “increase in the viability of cells” and the “viability of biofilm-growing bacteria” value [2] was “significantly inhibited”. The biofilm formation [3] was “significantly inhibited”.
